Test system: MV-4-11 cells
Test: Gene expression microarray analysis (Affymetrix PrimeView) and GSEA
Format: cell-based, human
Design: RFU PODN (11730768_x_at) / Fold change /veh PODN (11730768_x_at) / RFU LINC00158 (11744669_a_at) / Fold change /veh LINC00158 (11744669_a_at) / RFU DUSP10 (11751237_a_at) / Fold change /veh DUSP10 (11751237_a_at) / RFU ID3 (11757404_x_at) / Fold change /veh ID3 (11757404_x_at) / RFU PLEKHG5 (11737974_s_at) / Fold change /veh PLEKHG5 (11737974_s_at) / RFU LRRC4B (11730491_at) / Fold change /veh LRRC4B (11730491_at) / RFU GIMAP4 (11747438_a_at) / Fold change /veh GIMAP4 (11747438_a_at) / RFU KRT8 (11758183_x_at) / Fold change /veh KRT8 (11758183_x_at) / RFU CNN1 (11734310_a_at) / Fold change /veh CNN1 (11734310_a_at) / RFU VPS37D (11726825_at) / Fold change /veh VPS37D (11726825_at) / RFU C10orf10 (11716522_x_at) / Fold change /veh C10orf10 (11716522_x_at) / RFU KIR2DL2 /// KIR2DL4 /// KIR2DL5A /// KIR2DL5B /// KIR2DS1 /// KIR2DS2 /// KIR2DS3 /// KIR2DS4 /// KIR3DL3 /// KIR3DL3 /// KIR3DS1 (11738374_at) / Fold change /veh KIR2DL2 /// KIR2DL4 /// KIR2DL5A /// KIR2DL5B /// KIR2DS1 /// KIR2DS2 /// KIR2DS3 /// KIR2DS4 /// KIR3DL3 /// KIR3DL3 /// KIR3DS1 (11738374_at) / RFU C1QL1 (11718748_at) / Fold change /veh C1QL1 (11718748_at) / RFU TMPRSS4 (11747572_a_at) / Fold change /veh TMPRSS4 (11747572_a_at) / RFU HAMP (11756126_x_at) / Fold change /veh HAMP (11756126_x_at) / RFU RNFT2 (11725882_a_at) / Fold change /veh RNFT2 (11725882_a_at) / RFU NR4A2 (11747474_a_at) / Fold change /veh NR4A2 (11747474_a_at) / RFU ABCC12 (11746883_a_at) / Fold change /veh ABCC12 (11746883_a_at) / RFU TMEM136 (11760407_x_at) / Fold change /veh TMEM136 (11760407_x_at) / RFU CLDN22 /// WWC2 (11732394_at) / Fold change /veh CLDN22 /// WWC2 (11732394_at) / RFU HLA-DPB1 (11760878_x_at) / Fold change /veh HLA-DPB1 (11760878_x_at) / RFU SPINT1 (11716480_a_at) / Fold change /veh SPINT1 (11716480_a_at) / RFU GAP43 (11754022_s_at) / Fold change /veh GAP43 (11754022_s_at) / RFU A4GNT (11735810_at) / Fold change /veh A4GNT (11735810_at) / RFU PRB3 (11715151_x_at) / Fold change /veh PRB3 (11715151_x_at) / RFU TUBB4B (11761932_at) / Fold change /veh TUBB4B (11761932_at) / RFU CAPN14 (11732068_a_at) / Fold change /veh CAPN14 (11732068_a_at) / RFU TMCC2 (11721928_a_at) / Fold change /veh TMCC2 (11721928_a_at) / RFU IRGQ (11745062_a_at) / Fold change /veh IRGQ (11745062_a_at) / RFU FAM174B (11720279_a_at) / Fold change /veh FAM174B (11720279_a_at) / RFU TMPRSS4 (11748680_a_at) / Fold change /veh TMPRSS4 (11748680_a_at) / RFU FAM212B (11763350_a_at) / Fold change /veh FAM212B (11763350_a_at) / RFU PLEKHG5 (11743358_a_at) / Fold change /veh PLEKHG5 (11743358_a_at) / RFU ZSCAN30 (11745921_a_at) / Fold change /veh ZSCAN30 (11745921_a_at) / RFU CMKLR1 (11741424_a_at) / Fold change /veh CMKLR1 (11741424_a_at) / RFU LOC101060620 /// MAPK8IP1 (11723275_at) / Fold change /veh LOC101060620 /// MAPK8IP1 (11723275_at) / RFU SPTSSB (11747773_x_at) / Fold change /veh SPTSSB (11747773_x_at) / RFU PRSS12 (11739890_at) / Fold change /veh PRSS12 (11739890_at) / RFU BIN1 (11741810_x_at) / Fold change /veh BIN1 (11741810_x_at) / RFU WNT11 (11732464_a_at) / Fold change /veh WNT11 (11732464_a_at) / RFU C10orf10 (11716521_a_at) / Fold change /veh C10orf10 (11716521_a_at) / RFU C5orf56 (11738089_at) / Fold change /veh C5orf56 (11738089_at) / RFU CYB561 (11721691_x_at) / Fold change /veh CYB561 (11721691_x_at) / RFU ANKRD19P (11752326_a_at) / Fold change /veh ANKRD19P (11752326_a_at) / RFU OR2T12 /// OR2T33 /// OR2T8 (11738714_s_at) / Fold change /veh OR2T12 /// OR2T33 /// OR2T8 (11738714_s_at) / RFU VCAN (11748164_a_at) / Fold change /veh VCAN (11748164_a_at) / RFU JSRP1 (11732532_at) / Fold change /veh JSRP1 (11732532_at) / RFU KRTAP10-11 (11738290_x_at) / Fold change /veh KRTAP10-11 (11738290_x_at) / RFU MYO3A (11730013_a_at) / Fold change /veh MYO3A (11730013_a_at) / RFU EBF3 (11725865_a_at) / Fold change /veh EBF3 (11725865_a_at) / RFU CAMK2N1 (11719241_x_at) / Fold change /veh CAMK2N1 (11719241_x_at) / RFU C5orf56 (11738088_a_at) / Fold change /veh C5orf56 (11738088_a_at) / RFU OLFML3 (11715873_a_at) / Fold change /veh OLFML3 (11715873_a_at) / RFU LOC100653217 /// NTM (11731650_a_at) / Fold change /veh LOC100653217 /// NTM (11731650_a_at) / RFU MAPK11 (11762145_a_at) / Fold change /veh MAPK11 (11762145_a_at) / RFU FIZ1 (11724087_x_at) / Fold change /veh FIZ1 (11724087_x_at) / RFU OASL (11726364_x_at) / Fold change /veh OASL (11726364_x_at) / RFU SOX15 (11748057_x_at) / Fold change /veh SOX15 (11748057_x_at) / RFU CD79A (11719716_a_at) / Fold change /veh CD79A (11719716_a_at) / RFU HIST1H1D (11736915_at) / Fold change /veh HIST1H1D (11736915_at) / RFU CASKIN2 (11723855_a_at) / Fold change /veh CASKIN2 (11723855_a_at) / RFU LOC730098 (11760151_x_at) / Fold change /veh LOC730098 (11760151_x_at) / RFU OR4N2 (11742367_at) / Fold change /veh OR4N2 (11742367_at) / RFU PRRT2 (11749266_a_at) / Fold change /veh PRRT2 (11749266_a_at) / RFU SNX32 (11753110_a_at) / Fold change /veh SNX32 (11753110_a_at) / RFU CDHR5 (11726645_a_at) / Fold change /veh CDHR5 (11726645_a_at) / RFU RCAN1 (11760418_a_at) / Fold change /veh RCAN1 (11760418_a_at) / RFU FAM167A (11723789_a_at) / Fold change /veh FAM167A (11723789_a_at) / RFU FAM26E (11764081_at) / Fold change /veh FAM26E (11764081_at) / RFU ISYNA1 (11749810_s_at) / Fold change /veh ISYNA1 (11749810_s_at) / RFU ACY1 (11761880_at) / Fold change /veh ACY1 (11761880_at) / RFU 11764098_at / Fold change /veh 11764098_at / RFU SAMD14 (11745864_x_at) / Fold change /veh SAMD14 (11745864_x_at) / RFU NPB (11741838_a_at) / Fold change /veh NPB (11741838_a_at) / RFU TMPRSS6 (11731388_a_at) / Fold change /veh TMPRSS6 (11731388_a_at) / RFU KRTAP10-2 (11738614_at) / Fold change /veh KRTAP10-2 (11738614_at) / RFU ARHGAP8 /// PRR5-ARHGAP8 (11727945_x_at) / Fold change /veh ARHGAP8 /// PRR5-ARHGAP8 (11727945_x_at) / RFU KRTAP5-7 /// NADSYN1 (11734609_at) / Fold change /veh KRTAP5-7 /// NADSYN1 (11734609_at) / RFU RASL12 (11751679_a_at) / Fold change /veh RASL12 (11751679_a_at) / RFU CDKN2B (11736163_a_at) / Fold change /veh CDKN2B (11736163_a_at) / RFU PRF1 (11729649_at) / Fold change /veh PRF1 (11729649_at) / RFU, ZNF638 /// ZNF638-IT1 / Fold change vs veh, ZNF638 /// ZNF638-IT1 / RFU, PANK3 / Fold change vs veh, PANK3 / RFU, SH3YL1 / Fold change vs veh, SH3YL1 / RFU, ZEB2 / Fold change vs veh, ZEB2 / RFU, NRIP1 / Fold change vs veh, NRIP1 / RFU, PTTG1IP / Fold change vs veh, PTTG1IP / RFU, CAPN2 / Fold change vs veh, CAPN2 / RFU, MED14 / Fold change vs veh, MED14 / RFU, SNORA58 / Fold change vs veh, SNORA58 / RFU, C1orf63 / Fold change vs veh, C1orf63 / RFU, LRRFIP1 / Fold change vs veh, LRRFIP1 / RFU, NDUFAF7 / Fold change vs veh, NDUFAF7 / RFU, SLC12A2 / Fold change vs veh, SLC12A2 / RFU, IBTK / Fold change vs veh, IBTK / RFU, ESF1 / Fold change vs veh, ESF1 / Fold change vs veh, TMEM50B / RFU, TAOK1 / Fold change vs veh, TAOK1 / RFU, ACBD3 / Fold change vs veh, ACBD3 / RFU, TMA16 / Fold change vs veh, TMA16 / RFU, RWDD3 / Fold change vs veh, RWDD3 / RFU, BCAT1 / Fold change vs veh, BCAT1 / RFU, EDEM3 / Fold change vs veh, EDEM3 / RFU, TMEM33 / Fold change vs veh, TMEM33 / RFU, WDR75 / Fold change vs veh, WDR75 / RFU, AHCTF1 / Fold change vs veh, AHCTF1 / RFU, TFRC / Fold change vs veh, TFRC / RFU, ZDHHC17 / Fold change vs veh, ZDHHC17 / RFU, NOM1 / Fold change vs veh, NOM1 / RFU, ARL8B / Fold change vs veh, ARL8B / RFU, ZBTB11 / Fold change vs veh, ZBTB11 / RFU, TAMM41 / Fold change vs veh, TAMM41 / RFU, KIAA1704 /// LOC100996395 / Fold change vs veh, KIAA1704 /// LOC100996395 / RFU, ING1 / Fold change vs veh, ING1 / RFU, TRMT61B / Fold change vs veh, TRMT61B / RFU, FUBP3 / Fold change vs veh, FUBP3 / RFU, TP53 / Fold change vs veh, TP53 / RFU, TNKS2 / Fold change vs veh, TNKS2 / RFU, ZFP14 / Fold change vs veh, ZFP14 / RFU, ACTR2 / Fold change vs veh, ACTR2 / RFU, PPP3R1 / Fold change vs veh, PPP3R1 / RFU, PIK3R1 / Fold change vs veh, PIK3R1 / RFU, HNRNPA1 / Fold change vs veh, HNRNPA1 / RFU, RNF170 / Fold change vs veh, RNF170 / RFU, ZNF28 / Fold change vs veh, ZNF28 / RFU, RNGTT / Fold change vs veh, RNGTT / RFU, OGT / Fold change vs veh, OGT / RFU, BRD1 / Fold change vs veh, BRD1 / RFU, MARS / Fold change vs veh, MARS / RFU, ZNF655 / Fold change vs veh, ZNF655 / RFU, FAHD1 / Fold change vs veh, FAHD1 / RFU, BDP1 / Fold change vs veh, BDP1 / RFU, LRRCC1 / Fold change vs veh, LRRCC1 / RFU, ARID1A / Fold change vs veh, ARID1A / RFU, ZNF146 / Fold change vs veh, ZNF146 / RFU, ZNF330 / Fold change vs veh, ZNF330 / RFU, GPN3 / Fold change vs veh, GPN3 / RFU, C9orf123 / Fold change vs veh, C9orf123 / RFU, N4BP2L2 / Fold change vs veh, N4BP2L2 / RFU, ARFIP1 / Fold change vs veh, ARFIP1 / RFU, FAM179B / Fold change vs veh, FAM179B / RFU, BCL10 / Fold change vs veh, BCL10 / RFU, UHRF1BP1L / Fold change vs veh, UHRF1BP1L / RFU, BET1 / Fold change vs veh, BET1 / RFU, CNOT2 / Fold change vs veh, CNOT2 / RFU, ZNF268 / Fold change vs veh, ZNF268 / Fold change vs veh, ZNF507 / RFU, DGCR2 / Fold change vs veh, DGCR2 / RFU, WDSUB1 / Fold change vs veh, WDSUB1 / Fold change vs veh, HSP90B1 /// MIR3652 / RFU, ADSS / Fold change vs veh, ADSS / RFU, GK / Fold change vs veh, GK / RFU, ZNF148 / Fold change vs veh, ZNF148 / RFU, TAF9 / Fold change vs veh, TAF9 / RFU, SLC1A5 / Fold change vs veh, SLC1A5 / RFU, SLMO2 / Fold change vs veh, SLMO2 / RFU, ABCC4 / Fold change vs veh, ABCC4 / RFU, LOC101060439 /// RAP1B / Fold change vs veh, LOC101060439 /// RAP1B / RFU, RFX7 / Fold change vs veh, RFX7 / RFU, GTPBP10 / Fold change vs veh, GTPBP10 / RFU, CNEP1R1 / Fold change vs veh, CNEP1R1 / RFU, BIVM-ERCC5 /// ERCC5 / Fold change vs veh, BIVM-ERCC5 /// ERCC5 / RFU, ILF3 / Fold change vs veh, ILF3 / RFU 11762660_at / Fold change /veh 11762660_at / RFU VCAN (11757783_s_at) / Fold change /veh VCAN (11757783_s_at) / RFU DDX43 (11728927_at) / Fold change /veh DDX43 (11728927_at) / RFU KRT8 (11758188_x_at) / Fold change /veh KRT8 (11758188_x_at) / RFU NKD1 (11759106_at) / Fold change /veh NKD1 (11759106_at) / RFU SRD5A1 (11742802_a_at) / Fold change /veh SRD5A1 (11742802_a_at) / RFU TPSAB1 /// TPSB2 (11721975_s_at) / Fold change /veh TPSAB1 /// TPSB2 (11721975_s_at) / RFU GSTM3 (11746129_a_at) / Fold change /veh GSTM3 (11746129_a_at) / RFU IL23R (11737362_x_at) / Fold change /veh IL23R (11737362_x_at) / RFU TMEM51 (11727254_a_at) / Fold change /veh TMEM51 (11727254_a_at) / RFU PIWIL2 (11732686_x_at) / Fold change /veh PIWIL2 (11732686_x_at) / RFU ORM1 (11744905_x_at) / Fold change /veh ORM1 (11744905_x_at) / RFU CCDC152 (11743942_at) / Fold change /veh CCDC152 (11743942_at) / RFU ECM1 (11717891_a_at) / Fold change /veh ECM1 (11717891_a_at) / RFU IL23R (11748794_a_at) / Fold change /veh IL23R (11748794_a_at) / RFU TNFAIP8L3 (11732012_x_at) / Fold change /veh TNFAIP8L3 (11732012_x_at) / RFU MBOAT4 (11741988_at) / Fold change /veh MBOAT4 (11741988_at) / RFU 11764193_at / Fold change /veh 11764193_at / RFU TMEM53 (11763286_at) / Fold change /veh TMEM53 (11763286_at) / RFU MAGEB2 (11727129_at) / Fold change /veh MAGEB2 (11727129_at) / RFU TMEM200A (11744735_a_at) / Fold change /veh TMEM200A (11744735_a_at) / RFU CCDC152 (11751479_a_at) / Fold change /veh CCDC152 (11751479_a_at) / RFU FAM211A (11726209_a_at) / Fold change /veh FAM211A (11726209_a_at) / RFU RGS16 (11746705_a_at) / Fold change /veh RGS16 (11746705_a_at) / RFU VCAN (11755009_s_at) / Fold change /veh VCAN (11755009_s_at) / RFU RHOB (11743442_s_at) / Fold change /veh RHOB (11743442_s_at) / RFU RGS16 (11720943_a_at) / Fold change /veh RGS16 (11720943_a_at) / RFU RGS16 (11720944_at) / Fold change /veh RGS16 (11720944_at) / RFU, VPS4B / Fold change vs veh, VPS4B / RFU, CREB1 / Fold change vs veh, CREB1 / RFU, DNAJC13 / Fold change vs veh, DNAJC13 / RFU, GNAQ / Fold change vs veh, GNAQ / RFU, CDK5R1 / Fold change vs veh, CDK5R1 / RFU, ZRANB3 / Fold change vs veh, ZRANB3 / RFU, CUL4A / Fold change vs veh, CUL4A / RFU, CCNY / Fold change vs veh, CCNY / RFU, UFL1 / Fold change vs veh, UFL1 / RFU, COG3 / Fold change vs veh, COG3 / RFU, DIAPH2 / Fold change vs veh, DIAPH2 / RFU, SKA2 / Fold change vs veh, SKA2 / RFU, AFF3 / Fold change vs veh, AFF3 / RFU, LMF1 / Fold change vs veh, LMF1 / RFU, IPO11 / Fold change vs veh, IPO11 / RFU, DFFB / Fold change vs veh, DFFB / RFU, FOXP1 / Fold change vs veh, FOXP1 / RFU, CARD8 / Fold change vs veh, CARD8 / RFU, STRN3 / Fold change vs veh, STRN3 / RFU, ADK / Fold change vs veh, ADK / RFU, RASSF2 / Fold change vs veh, RASSF2 / RFU, WIPF1 / Fold change vs veh, WIPF1 / RFU, LARP1B / Fold change vs veh, LARP1B / RFU, RASA1 / Fold change vs veh, RASA1 / RFU, RB1 / Fold change vs veh, RB1 / RFU, PPFIA1 / Fold change vs veh, PPFIA1 / RFU, MAT2A / Fold change vs veh, MAT2A / RFU, CCT5 / Fold change vs veh, CCT5 / RFU, WDR92 / Fold change vs veh, WDR92 / RFU, CUX1 / Fold change vs veh, CUX1 / RFU, TTC7A / Fold change vs veh, TTC7A / RFU, TMEM135 / Fold change vs veh, TMEM135 / RFU, DEPTOR / Fold change vs veh, DEPTOR / RFU, CPM / Fold change vs veh, CPM / RFU, DNAJB6 / Fold change vs veh, DNAJB6 / RFU, CACNA2D3 / Fold change vs veh, CACNA2D3 / RFU, DTX4 / Fold change vs veh, DTX4 / RFU, TFCP2 / Fold change vs veh, TFCP2 / RFU, GMCL1 /// GMCL1P1 / Fold change vs veh, GMCL1 /// GMCL1P1 / RFU, AEBP2 / Fold change vs veh, AEBP2 / RFU, SNHG1 /// SNORD22 /// SNORD25 /// SNORD26 /// SNORD27 /// SNORD28 /// SNORD29 /// SNORD31 / Fold change vs veh, SNHG1 /// SNORD22 /// SNORD25 /// SNORD26 /// SNORD27 /// SNORD28 /// SNORD29 /// SNORD31 / Fold change (Aza/veh), C12orf56 (ProbeSet 11735607_a_at) / Fold change (ACY-1035/veh), C12orf56 (ProbeSet 11735607_a_at) / Fold change (Aza/veh), FGFR1OP (ProbeSet 11751329_s_at) / Fold change (ACY-1035/veh), FGFR1OP (ProbeSet 11751329_s_at) / Fold change (Aza/veh), VPS36 (ProbeSet 11739960_a_at) / Fold change (ACY-1035/veh), VPS36 (ProbeSet 11739960_a_at) / RFU SYPL1 (11715823_x_at) / Fold change /veh SYPL1 (11715823_x_at) / RFU IGFBP7 (11715501_s_at) / Fold change /veh IGFBP7 (11715501_s_at) / RFU REEP3 (11722064_at) / Fold change /veh REEP3 (11722064_at) / RFU IGLL1 (11728026_x_at) / Fold change /veh IGLL1 (11728026_x_at): dose or concentration left out as unconfirmed
Details: ProbeSet 11722022_s_at; LIST D

Nc1ccc(-c2cccs2)cc1NC(=O)c1ccc2c(c1)cc(C1CC1)n2CCN1CCOCC1 [ACY-1035]
Fold change vs veh, CDK5R1: 0.91
